A short description of data set [1]: DPPH radical-scavenging (DPPH inhibition) assay. The class given is biochemical. As for the experimental part:
The DPPH (2,2-diphenyl-1-picrylhydrazyl) radical dissolved in an organic solvent has maximum absorbance at 515 nm. An antioxidant substance scavenges the DPPH radical, thereby turning the solution colorless and transparent. Accordingly, antioxidant effect can be compared by measuring the DPPH radical-scavenging activity of the ginsenosides through DPPH assay.
First, a DPPH solution was prepared by dissolving 4 mg of DPPH (Sigma) in 100 mL of ethanol (Sigma). Then, 10 μM of the novel ginsenoside GS #10 of an exemplary embodiment of the present disclosure or each of the ginsenosides GS #01 to GS #06 as comparative examples of the present disclosure, isolated from the ginseng seed extract, were dissolved in 200 μL of the DPPH solution. Trolox (Sigma; 10 μM) was used as a positive control group. After keeping the reaction solution at room temperature for 30 minutes, absorbance was measured at a wavelength of 515 nm.
DPPH-inhibiting effect was compared in the same manner as in Test Example 1. The novel ginsenoside GS #10 (isolated form the ginseng seed extract) according to an exemplary embodiment of the present disclosure was compared with three marker compounds of red ginseng (Rg1, Rg3 and Rb1; Sigma) as comparative examples of the present disclosure. The concentrations of the ginsenosides were 1 and 10 μM. […]
(In general: DPPH is a stable violet radical that fades when it is reduced.)

In the next data set the test system is RAW 264.7 macrophages. Put plainly: Scavenging of LPS-induced reactive oxygen species, H2DCFDA fluorescence. In kind it is cell-based. As for the experimental part: RAW 264.7 macrophages purchased from ATCC were cultured in Dulbecco's modified Eagle's medium (Sigma) supplemented with 10% fetal bovine serum (FBS; HyClone) and 1% penicillin/streptomycin (Sigma) in a 5% CO2 incubator. After treating the RAW 264.7 cells with NAC (N-acetylcysteine; positive control group; Sigma) or each of the 7 ginsenosides extracted from the ginseng seed (GS #01 to GS #06 and GS #10; 10 μM each) for 1 hour, lipidpolysaccharides (LPS; inflammation/oxidative stress-induced group, Sigma) ware administered at a concentration of 10 ng/mL concentration for 30 minutes. Then, the cells were treated with 10 μM H2DCFDA (2′,7′-dichlorodihydrofluorescein diacetate; Invitrogen) for 30 minutes for measurement of reactive oxygen species. The amount of accumulated reactive oxygen species was measured using a TECAN multiplate reader (Tecan AG, excitation 485 nm, emission 530 nm).
The reactive oxygen species-scavenging ability of the novel ginsenoside GS #10 (isolated from the ginseng seed extract) according to an exemplary embodiment of the present disclosure was compared with that of three ginsenosides (Rg1, Rg3 and Rb1; Sigma), which are marker compounds of red ginseng as comparative examples of the present disclosure, in the same manner as in Test Example 2. The concentrations of the ginsenosides were 1 and 10 μM.

For another data set, the system named is SH-SY5Y cells. Put plainly: Cytotoxicity / cell viability, CCK-8. The class given is cell-based. The note with it: SH-SY5Y cells, 0.1, 1, 5, 10, 20 and 50 μM, CCK-8 (FIG. 15). The procedure:
In order to exclude the possibility that the ginsenoside might affect antioxidant effect through cytotoxic activity, cell growth in the presence of the novel ginsenoside GS #10 according to an exemplary embodiment of the present disclosure was evaluated as follows using CCK (Cell Counting Kit)-8.
After adding 10 μL of CCK-8 reagent to SH-SY5Y cells (Dojindo, Md., USA) on a 96-well plate and maintaining at 37° C. for 2 hours, absorbance was measured at 450 nm. Cell viability was represented as the percentage (%) of the absolute optical density of each sample with respect to an untreated sample. The concentrations of the novel ginsenoside GS #10 according to an exemplary embodiment of the present disclosure in the medium for culturing the cells were 0.1, 1, 5, 10, 20 and 50 μM.

Each structure is given as a SMILES string.

Regarding `CC1(C)C(=O)CC[C@@]2(C)C1[C@@H](O[C@H]1OC(CO)[C@H](O)C(O)C1O[C@H]1OC(CO)[C@H](O)C(O)C1O)C[C@]1(C)C2C[C@@H](O)C2C([C@]3(C)CC[C@H](C(C)(C)O)O3)CC[C@]21C` (stereo partly drawn) [Compound 10, (20S,24R)-6-O-β-D-glucopyranosyl(1->2)-β-D-glucopyranoside-dammar-3-one-20,24-epoxy-6a,12b,25-triol], the “DPPH (reactive oxygen species)-scavenging ability, i.e., DPPH-inhibiting ability” value in data set [1] (10 μM, room temperature 30 minutes, absorbance 515 nm, compared to Compounds 1-6 at the same concentration (FIG. 11)) is reported as “remarkably higher DPPH (reactive oxygen species)-scavenging ability”. Further, the DPPH-inhibiting effect entry in data set [1] (1 and 10 μM, compared to ginsenosides Rg1, Rg3 and Rb1, marker compounds of red ginseng (FIG. 13)) is “remarkably excellent DPPH-inhibiting effect”. Moreover, the “removal of reactive oxygen species induced by LPS” value with RAW 264.7 macrophages (10 μM for 1 hour, then LPS 10 ng/mL 30 minutes, compared to Compounds 1-6 at the same concentration (FIG. 12)) is “can effectively remove the reactive oxygen species induced by LPS”. Besides, the “production of reactive oxygen species” value in the data set with RAW 264.7 macrophages (1 and 10 μM, LPS-treated RAW 264.7 cells (FIG. 14)) is given as “decreased as the concentration of the novel ginsenoside GS #10 according to the present disclosure was increased”. Also, in the data set with RAW 264.7 macrophages (1 and 10 μM, compared to ginsenosides Rg1, Rg3 and Rb1 (FIG. 14)), the “reactive oxygen species-scavenging ability” value is recorded as “remarkably superior”. In addition, in the data set with SH-SY5Y cells, the “cytotoxicity (cell viability, % of untreated sample)” value was “no cytotoxicity up to 50 μM”.

For the origin of these results see US20210308166A1, “ANTIOXIDANT COMPOSITION COMPRISING NOVEL GINSENOSIDE” (AMOREPACIFIC CORPORATION, priority 2018, published 2021).
